Data from US20050085463A1 (priority 2003, published 2005).
Where “and” joins values, the source holds several entries; their conditions need not be identical. Equal values may be shown once. Read-outs that look alike come from different tables or passages of the source.

How the values were obtained:
5-HT1A receptor = target: T1, 5-HT1A receptor (Homo sapiens, UniProt P08908); assay: Ligand binding screen at 10 μM
T1 sequence (P08908 1-422): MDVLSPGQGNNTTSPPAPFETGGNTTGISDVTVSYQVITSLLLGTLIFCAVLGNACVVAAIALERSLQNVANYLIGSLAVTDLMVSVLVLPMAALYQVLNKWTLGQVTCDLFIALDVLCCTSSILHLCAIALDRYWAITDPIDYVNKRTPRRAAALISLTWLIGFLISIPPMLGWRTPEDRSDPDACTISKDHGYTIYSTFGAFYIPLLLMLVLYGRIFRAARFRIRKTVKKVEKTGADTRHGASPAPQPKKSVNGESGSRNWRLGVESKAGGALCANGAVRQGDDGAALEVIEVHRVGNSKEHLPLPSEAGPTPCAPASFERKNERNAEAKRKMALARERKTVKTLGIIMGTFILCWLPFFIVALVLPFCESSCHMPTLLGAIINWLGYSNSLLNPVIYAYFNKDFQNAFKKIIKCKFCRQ

spontaneous activity = assay: Spontaneous locomotion; format: in vivo, Non-Swiss Albino (NSA) mice; conditions: 10 mg/kg s.c.; maintained for 120 minutes
[1] = test system: MK-801-induced hyperactivity; assay: Reversal of MK-801-induced hyperactivity; format: in vivo, Non-Swiss Albino (NSA) mice
Excerpt: Clinically effective antipsychotic drugs can block the behavioral effects of non-competitive N-methyl-D-aspartate […], such as MK-801. […]. […]

[2] = Pharmacokinetics after i.v. or oral dose in dogs; format: in vivo, beagle dogs; conditions: dog; for concentration at 2 min / concentration at 5 min / concentration at 10 min / concentration at 30 min / concentration at 60 min / concentration at 120 min / concentration at 180 min / concentration at 240 min / concentration at 360 min: plasma; for bioavailability: NDMC p.o. 10 mg/kg vs i.v. 1 mg/kg, read-out: BA (oral bioavailability)
D3 dopamine receptor = D3 dopamine receptor (Homo sapiens, UniProt P35462); conditions: R-SAT; nr = no significant antagonist or inverse agonist activity up to 1 μM; nr* = nr but significant agonist activity
D3 dopamine receptor, sequence (P35462 whole entry): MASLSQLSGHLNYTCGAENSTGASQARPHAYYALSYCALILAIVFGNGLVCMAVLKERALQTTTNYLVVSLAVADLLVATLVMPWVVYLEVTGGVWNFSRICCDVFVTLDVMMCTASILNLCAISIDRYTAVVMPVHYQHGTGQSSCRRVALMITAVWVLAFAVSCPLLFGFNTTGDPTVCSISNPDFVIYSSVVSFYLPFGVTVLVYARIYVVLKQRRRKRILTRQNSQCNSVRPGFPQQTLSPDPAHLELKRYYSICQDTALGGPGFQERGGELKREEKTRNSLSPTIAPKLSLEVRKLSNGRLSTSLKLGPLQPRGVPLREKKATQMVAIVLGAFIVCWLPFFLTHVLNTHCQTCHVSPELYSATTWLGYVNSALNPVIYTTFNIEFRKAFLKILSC

M2 muscarinic receptor = target: T2, M2 muscarinic receptor (Homo sapiens, UniProt P08172); assay: R-SAT agonist assay
T2 sequence (P08172 1-466): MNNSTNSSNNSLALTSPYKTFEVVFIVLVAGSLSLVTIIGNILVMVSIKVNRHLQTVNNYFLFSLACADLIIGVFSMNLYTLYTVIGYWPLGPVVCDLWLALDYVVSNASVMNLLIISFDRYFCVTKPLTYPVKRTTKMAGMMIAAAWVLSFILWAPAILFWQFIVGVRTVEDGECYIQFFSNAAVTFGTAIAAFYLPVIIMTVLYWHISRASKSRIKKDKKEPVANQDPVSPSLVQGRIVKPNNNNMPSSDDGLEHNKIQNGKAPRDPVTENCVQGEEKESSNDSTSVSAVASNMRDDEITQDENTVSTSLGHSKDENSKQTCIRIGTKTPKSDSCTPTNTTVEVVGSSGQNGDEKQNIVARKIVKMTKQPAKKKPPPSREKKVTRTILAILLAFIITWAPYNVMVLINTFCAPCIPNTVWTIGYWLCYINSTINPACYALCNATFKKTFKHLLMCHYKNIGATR

5-HT7A receptor = 5-HT7A receptor (Homo sapiens, UniProt P34969); assay: R-SAT inverse agonist assay
5-HT7A receptor, sequence (P34969 1-445 isoform P34969-2): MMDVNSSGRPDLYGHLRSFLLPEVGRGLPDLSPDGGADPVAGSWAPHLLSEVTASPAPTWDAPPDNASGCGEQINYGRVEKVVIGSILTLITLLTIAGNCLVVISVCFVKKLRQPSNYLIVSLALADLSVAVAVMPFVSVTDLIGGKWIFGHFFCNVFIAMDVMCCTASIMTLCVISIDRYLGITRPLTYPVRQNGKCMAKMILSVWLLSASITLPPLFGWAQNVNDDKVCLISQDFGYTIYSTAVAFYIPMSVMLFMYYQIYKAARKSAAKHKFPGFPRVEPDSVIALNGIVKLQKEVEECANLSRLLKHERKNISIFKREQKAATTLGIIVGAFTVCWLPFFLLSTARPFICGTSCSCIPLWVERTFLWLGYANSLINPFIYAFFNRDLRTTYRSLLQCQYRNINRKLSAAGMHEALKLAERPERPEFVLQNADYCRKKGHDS

D2 dopamine receptor = D2 dopamine receptor (Homo sapiens, UniProt P14416); assay: R-SAT competitive antagonist assay
D2 dopamine receptor, sequence (P14416 whole entry): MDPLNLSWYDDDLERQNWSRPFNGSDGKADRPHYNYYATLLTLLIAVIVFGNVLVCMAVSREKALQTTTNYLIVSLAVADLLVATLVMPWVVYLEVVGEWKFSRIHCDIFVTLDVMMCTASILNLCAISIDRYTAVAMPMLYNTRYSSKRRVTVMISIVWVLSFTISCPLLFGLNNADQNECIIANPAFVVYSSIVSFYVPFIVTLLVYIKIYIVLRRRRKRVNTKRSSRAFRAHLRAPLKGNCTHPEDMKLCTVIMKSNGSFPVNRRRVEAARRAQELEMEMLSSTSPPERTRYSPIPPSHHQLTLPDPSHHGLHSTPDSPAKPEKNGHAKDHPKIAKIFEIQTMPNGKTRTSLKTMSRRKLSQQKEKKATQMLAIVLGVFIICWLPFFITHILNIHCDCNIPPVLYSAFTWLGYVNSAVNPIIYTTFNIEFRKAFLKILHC

M1 muscarinic receptor [3] = target: T3, M1 muscarinic receptor (Homo sapiens, UniProt P11229); assay: R-SAT agonist assay; format: cell-based; design: expressed in transfected cells; host or cells: NIH/3T3
T3 sequence (P11229 1-460): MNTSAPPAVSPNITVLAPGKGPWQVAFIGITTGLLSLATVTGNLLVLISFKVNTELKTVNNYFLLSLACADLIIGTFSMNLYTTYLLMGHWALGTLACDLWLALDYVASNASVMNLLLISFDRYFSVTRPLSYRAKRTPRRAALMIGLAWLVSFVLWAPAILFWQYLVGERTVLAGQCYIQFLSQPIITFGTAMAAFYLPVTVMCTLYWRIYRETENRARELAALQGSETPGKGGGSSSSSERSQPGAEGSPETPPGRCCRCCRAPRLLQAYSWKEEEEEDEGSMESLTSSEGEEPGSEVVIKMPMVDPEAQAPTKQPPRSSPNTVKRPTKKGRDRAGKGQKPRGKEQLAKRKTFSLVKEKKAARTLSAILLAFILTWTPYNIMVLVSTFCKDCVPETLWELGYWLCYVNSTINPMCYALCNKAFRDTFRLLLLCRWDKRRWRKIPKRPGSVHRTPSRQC

M1 muscarinic receptor [4] = target: T3, M1 muscarinic receptor; assay: R-SAT competitive antagonist assay; format: cell-based; design: expressed in transfected cells; host or cells: NIH/3T3; conditions: nr = no significant antagonist or inverse agonist activity up to 1 μM, nr* = nr but significant agonist activity
[5] = beagle, iv, 1 mg/kg, Plasma concentration after NDMC administration, NDMC i.v. 1 mg/kg
[6] = beagle, iv, 1 mg/kg, Plasma concentration of compound measured after clozapine administration, clozapine i.v. 1 mg/kg
[7] = beagle, po, 10 mg/kg, Plasma concentration after NDMC administration, NDMC p.o. 10 mg/kg
[8] = beagle, po, 10 mg/kg, Plasma concentration of compound measured after clozapine administration, clozapine p.o. 10 mg/kg

For `Clc1ccc2c(c1)N=C(N1CCNCC1)c1ccccc1N2` [NDMC, 8-chloro-11-(1-piperazinyl)-5H-dibenzo [b,e][1,4] diazepine], the inhibition at 10 µM (5-HT1A receptor) was ≥ 90%, the “time of maximal reduction of spontaneous activity” value (spontaneous activity) was 30 min and the “minimal effective dose, attenuation of MK-801-induced hyperactivity” value ([1]; p.o.) was 10 mg/kg. The “minimal effective dose, attenuation of MK-801-induced hyperactivity” value ([1]; s.c.) was 1 mg/kg, the concentration at 2 min [2, 5] was 182 ng/mL and the concentration at 5 min [2, 5] was 73 ± 22 ng/mL. It also gave a concentration at 10 min [2, 5] of 50 ± 10 ng/mL, a concentration at 30 min [2, 5] of 35 ± 2 ng/mL and a concentration at 60 min [2, 5] of 32 ± 6 ng/mL. For the same molecule, the concentration at 120 min [2, 5] was 28 ± 4 ng/mL, the concentration at 180 min [2, 5] was 27 ± 7 ng/mL and the concentration at 240 min [2, 5] was 27 ± 4 ng/mL. It also gave a concentration at 2 min [2, 6] of 0.54 ± 0.12 ng/mL, a concentration at 5 min [2, 6] of 0.47 ± 0.06 ng/mL and a concentration at 10 min [2, 6] of 0.64 ± 0.26 ng/mL. For the same molecule, the concentration at 30 min [2, 6] was 1.72 ± 0.75 ng/mL, the concentration at 60 min [2, 6] was 3.55 ± 1.03 ng/mL and the concentration at 120 min [2, 6] was 4.31 ± 1.34 ng/mL. For the same molecule, the concentration at 180 min [2, 6] was 4.89 ± 1.41 ng/mL, the concentration at 240 min [2, 6] was 4.44 ± 1.31 ng/mL and the concentration at 10 min [2, 7] was 1 ng/mL. It also gave a concentration at 30 min [2, 7] of 14 ± 12 ng/mL, a concentration at 60 min [2, 7] of 67 ± 37 ng/mL and a concentration at 120 min [2, 7] of 155 ± 95 ng/mL. The concentration at 180 min [2, 7] was 249 ± 44 ng/mL, the concentration at 240 min [2, 7] was 274 ± 44 ng/mL and the concentration at 360 min [2, 7] was 261 ng/mL. The concentration at 10 min [2, 8] was 0 ng/mL, the concentration at 30 min [2, 8] was 2.45 ng/mL and the concentration at 60 min [2, 8] was 25.4 ng/mL. The concentration at 120 min [2, 8] was 5.8 ng/mL, the concentration at 180 min [2, 8] was 10.3 ng/mL and the concentration at 240 min [2, 8] was 19.2 ng/mL. For the same molecule, the concentration at 360 min [2, 8] was 46.7 ng/mL, the AUC ([2]; beagle, serum, iv, 1 mg/kg) was 135 ± 21.3 ng·h/mL and the Cmax ([2]; beagle, serum, iv, 1 mg/kg) was 353 ng/mL. For the same molecule, the Vd ([2]; beagle, serum, iv, 1 mg/kg) was 28.2 ± 4.92 L/kg, the half-life ([2]; beagle, serum, iv, 1 mg/kg) was 13.2 ± 7 h and the bioavailability ([2]; beagle, serum, oral, 10 mg/kg) was ~44%. The AUC ([2]; beagle, serum, po, 10 mg/kg) was 598 ± 112 ng·h/mL, the Cmax ([2]; beagle, serum, po, 10 mg/kg) was 286 ng/mL and the Tmax ([2]; beagle, serum, po, 10 mg/kg) was 3.3 ± 1.2 h. For the same molecule, the bioavailability ([2]; beagle, serum, po, 10 mg/kg) was 44%, the “time by which Cmax was achieved” value ([2]; after NDMC p.o. 10 mg/kg) was ≤ 3.3 h and the “peak NDMC levels as share of peak clozapine levels” value ([2]; after clozapine) was “approximately 16%”. For the same molecule, the “pKi D3, competitive antagonist” value (D3 dopamine receptor) was “nr and nr^”, the EC50 (M2 muscarinic receptor; M2 pEC50, R-SAT agonist) was 339 nM and 316 nM and the “M2 Efficacy” value (M2 muscarinic receptor; R-SAT, relative to carbachol, No response/nr = no agonist activity up to 10 μM) was 106 ± 19%. The EC50 (5-HT7A receptor) was 50.1 nM, the “pEC50 5HT7A, inverse agonist” value (5-HT7A receptor; R-SAT, nr = no significant antagonist or inverse agonist activity up to 1 μM) was 7.3 ± 0.1 and the Ki (D2 dopamine receptor) was 63.1 nM. The “pKi D2, competitive antagonist” value (D2 dopamine receptor; R-SAT, nr = no significant antagonist or inverse agonist activity up to 1 μM, nr* = nr but significant agonist activity) was 7.2 ± 0.1, the Ki (M1 muscarinic receptor [3]) was 50 nM and the EC50 (M1 muscarinic receptor [3]; M1 pEC50, R-SAT agonist) was 55 nM and 50.1 nM. The “pKi M1, competitive antagonist” value (M1 muscarinic receptor [4]) was “nr*”.
